Values joined by “and” are separate entries in the source; they are usually repeats but may differ in a detail not shown here. Identical values can stand only once.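 Assay format: 96-well plates, 48-hour exposure. The concentration for 50% growth inhibition is given as GI50. TGI: total growth inhibition.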

In PubChem BioAssay (NCI) one finds TGI and GI50 data, which are given here for 13 compounds.

Test systems include BT-549 breast; NCI-H460 lung; HCC-2998 colon; MCF7 breast; SR leukemia; HCT-15 colon; PC-3 prostate; M14 melanoma; MDA-MB-231 breast; HL-60(TB) leukemia.
What all share (test): DTP human tumour cell line panel, 48 h

On to `O=C1CC(=O)NC(=NNS(=O)(=O)c2ccccc2)N1`, for which the TGI with BT-549 breast, with NCI-H460 lung, in the test on HCC-2998 colon, in the test with MCF7 breast, in the test with SR leukemia and in the test on HCT-15 colon was above 100 µM in each case. Besides, the TGI with PC-3 prostate, with M14 melanoma and in the test on MDA-MB-231 breast was above 100 µM throughout.

Turning to `Cc1ccc2nc(C=Nc3ccc(Cl)cc3)cc(C)c2c1`, the TGI was 30 µM with BT-549 breast; above 70.6 µM with NCI-H460 lung; 6.62 µM in the test on HCC-2998 colon; 83.7 µM in the test on MCF7 breast; 11.6 µM with SR leukemia; 0.4 µM with HCT-15 colon. Also, the TGI with PC-3 prostate is above 76.5 µM; with HL-60(TB) leukemia, 16.7 µM; in the test with M14 melanoma it was 21.1 µM; in the test on MDA-MB-231 breast, 27.3 µM.

As to `CN1CCN(c2ccc3nc(-c4ccc5nc(-c6ccc(O)cc6)[nH]c5c4)[nH]c3c2)CC1`, the TGI worked out at 715 µM in the test on BT-549 breast; 714 µM in the test on NCI-H460 lung; 1080 µM in the test with HCC-2998 colon; 422 µM in the test with MCF7 breast; 2000 µM in the test on SR leukemia; 736 µM in the test with HCT-15 colon. For the same compound, the TGI in the test on PC-3 prostate was found to be 1150 µM; in the test on HL-60(TB) leukemia it was 148 µM; in the test with M14 melanoma it was 493 µM; in the test with MDA-MB-231 breast, 639 µM. Further, the GI50 with NCI-H460 lung was 349 µM; in the test with MCF7 breast, 5.33 µM; in the test with SR leukemia, 4.53 µM; in the test on HL-60(TB) leukemia, 9.03 µM and 24.3 µM.

With `O=c1c2cc(Cl)cc(Cl)c2oc2nc3n(c(=O)c12)CCCS3`, the TGI in the test on BT-549 breast, in the test on NCI-H460 lung, with HCC-2998 colon, in the test on MCF7 breast, in the test with SR leukemia and in the test with HCT-15 colon was above 100 µM in each case. Also, the TGI in the test with PC-3 prostate, in the test on M14 melanoma and with MDA-MB-231 breast was above 100 µM throughout.

Regarding `Cc1cccc(-c2cc(=O)c3c(C)cc(C)nc3[nH]2)c1`, the TGI was 30.2 µM in the test on BT-549 breast; 16.6 µM in the test with NCI-H460 lung; above 48.1 µM in the test with HCC-2998 colon; above 100 µM with MCF7 breast; 9.3 µM with SR leukemia; above 56 µM with HCT-15 colon. Moreover, the TGI was above 100 µM in the test on PC-3 prostate, 4.34 µM with HL-60(TB) leukemia, above 100 µM in the test with M14 melanoma and 31.8 µM in the test on MDA-MB-231 breast.

With `O=C1C=C(OCCCCl)C(=O)c2c(O)ccc(O)c21`, the TGI in the test with BT-549 breast amounted to 2.56 µM; in the test on NCI-H460 lung it was 3.1 µM; with HCC-2998 colon, 3.37 µM; in the test with MCF7 breast, 0.438 µM; in the test with SR leukemia it was 3.52 µM; in the test with HCT-15 colon it was 1.58 µM. Also, the TGI is 3.98 µM in the test on PC-3 prostate, 3.03 µM in the test on HL-60(TB) leukemia, 0.341 µM in the test on M14 melanoma and 3.39 µM in the test with MDA-MB-231 breast.

Regarding `CC(OC(=O)C(CC(=O)OC(C)(C)C)NC(=O)OC(C)(C)C)C(=O)OCc1ccccc1` (stereo not given), the TGI in the test on BT-549 breast, with NCI-H460 lung, in the test with HCC-2998 colon, in the test on MCF7 breast, in the test on SR leukemia and in the test with HCT-15 colon was above 100 µM each time. Also, the TGI in the test on PC-3 prostate, in the test on HL-60(TB) leukemia, in the test on M14 melanoma and in the test on MDA-MB-231 breast was above 100 µM throughout.

As for `C[N+](C)(C)CC(=O)N/N=C/c1ccncc1`, the TGI in the test on BT-549 breast, in the test on NCI-H460 lung, with MCF7 breast, in the test on SR leukemia, with HCT-15 colon and with PC-3 prostate was above 100 µM throughout. Besides, the TGI in the test on HL-60(TB) leukemia, with M14 melanoma and in the test on MDA-MB-231 breast was above 100 µM throughout.

In the case of `COc1ccc2[nH]c3c(C)c4ccnc(NCCCN(C)CCCNc5ccc6ncn7c8ccccc8c(=O)c5c67)c4c(C)c3c2c1`, the TGI in the test with BT-549 breast was found to be 3.99 µM; with NCI-H460 lung, 0.682 µM; in the test with MCF7 breast it was 2.61 µM; in the test on SR leukemia, 1.61 µM; with HCT-15 colon it was 3.45 µM; with PC-3 prostate, 4.21 µM. Further, the results for the TGI with M14 melanoma and with MDA-MB-231 breast were 2.48 µM and 1.2 µM, respectively.

For the compound `CN1CN(c2ccccc2)C2(CCN(CCC3COc4ccccc4O3)CC2)C1=O` (stereo not given), the TGI in the test with BT-549 breast is 42.5 µM; in the test with HCC-2998 colon, 23.9 µM; with MCF7 breast it was 72.4 µM; with SR leukemia, 71.6 µM; in the test on HCT-15 colon, above 100 µM; with PC-3 prostate it was above 100 µM. Further, the values for the TGI in the test with HL-60(TB) leukemia, with M14 melanoma and with MDA-MB-231 breast were 45.8 µM, 42 µM and above 100 µM, respectively.

As to `COc1cc2c(cc1OC)C(=O)/C(=C/c1cc(OC)c(OC)c(OC)c1)C2`, the total growth inhibition concentration (TGI) in the test on BT-549 breast, with NCI-H460 lung, with MCF7 breast, in the test on SR leukemia, in the test on HCT-15 colon and with PC-3 prostate was above 100 µM in each case. In addition, the TGI in the test with HL-60(TB) leukemia, in the test with M14 melanoma and with MDA-MB-231 breast was above 100 µM in each case.

In the case of `COc1ccc(C2C3CCc4ccccc4C3=NN2S(=O)(=O)c2ccc(/C=C/C(=O)O)cc2)cc1` (stereo not given), the TGI is above 100 µM in the test with BT-549 breast; 96.5 µM in the test on NCI-H460 lung; 6.55 µM in the test on MCF7 breast; 6.9 µM with SR leukemia; 0.717 µM in the test on HCT-15 colon; above 100 µM with PC-3 prostate. Also, the TGI is 9.67 µM in the test with HL-60(TB) leukemia, above 100 µM with M14 melanoma and above 100 µM with MDA-MB-231 breast.

Regarding `O=C(CNC(c1ccccc1)(c1ccccc1)c1ccccc1)NC1CCCCC1NC(=O)CNC(c1ccccc1)(c1ccccc1)c1ccccc1` (stereo not given), the TGI in the test on BT-549 breast, with NCI-H460 lung, in the test with HCC-2998 colon, in the test on MCF7 breast, in the test on SR leukemia and in the test with HCT-15 colon was above 100 µM each time. In addition, the concentration for total growth inhibition (TGI) with PC-3 prostate, in the test on HL-60(TB) leukemia and in the test on MDA-MB-231 breast was above 100 µM in each case.
